Columns and labels:
AMPA receptor = settings: cited from earlier work
[1] = system: sleep deprived non-human primates; assay: Delayed Match To Sample (DMTS) task after sleep deprivation; format: in vivo; settings: for Performance on DMTS Task (% Correct ± sem): Sleep Deprivation + BCM
From the text: This task consists of a kind of “heads-up” display wherein the monkey interacts with a computer video display through motions of its hand. […] A fluorescent spot on the back of the monkey's hand is tracked by an overhead camera, and the coordinates of the hand position are proportionally translated into movement of a cursor on the video display. The animal responds to single Sample phase images by placing the cursor inside the image, then after a delay (during which the display is blanked) the animal must select the appropriate Match image (out of 2-6 different images) by placing the cursor inside the image identical to the Sample. Animal performance is scored as correct responses according to length of delay, and complexity of the trial (number of match images). Recent findings have shown that primate hippocampal neurons encode specific features of the task and stimulus, and that strength of the encoding correlates to behavioral success. Recording and on-line analysis of hippocampal neural activity allows tracking of the animal's cognitive performance under various experimental conditions. Two additional measures (eye and limb movement tracking) along with recording of movement sensitive neurons in hippocampus, putamen and motor cortex provide assessment of attention and ability to perform directed motor movements. Thus, it is possible to distinguish behavioral errors due to inattention or slow movements from those caused by inappropriate cognitive processing of the task information.
(§1) In practice, an animal is trained in the DMTS task such that his daily performance variable is relatively constant. This is judged as baseline performance. Once a stable baseline is established, the subject is deprived of sleep for variable periods in order to establish the effect of sleep deprivation on performance. The ability of an AMPA receptor modulator to ameliorate the decline in performance in the DMTS task is assessed by administered of the test compound prior to or during testing after sleep deprivation. If the test compound is administer prior to the beginning of the test session, then the effect of the drug is compared to performance following sleep deprivation on prior or subsequent days of testing. This protocol allows for the co-administration of a metabolic tracer (such as fluorodeoxyglucose labeled with fluorine-18; FDG) so that regional brain activity can be evaluated using Positron Emission Tomography (PET). Alternatively, an intravenous administration of the test compound midway into the DMTS session allows for a within-session evaluation of drug effect.

[2] = system: sleep deprived non-human primates; assay: Regional glucose utilization (FDG PET) in brain during DMTS task; format: in vivo
Procedure: as §1
Positron Emission Tomography (PET) was used in order to examine the extent to which different brain regions were effected by sleep deprivation by measuring the uptake of ^18F-labeled fluorodeoxyglucose (FDG) into cells as a measure of metabolic activity. By this method it was observed that there was a general increase in metabolism across all brain regions on test days that followed sleep deprivation compared to normal baseline test days (FIG. 2).
The absolute values shown in FIG. 2 can be normalized to global brain metabolism (FIG. 3) by the following equation: (ROISD/GSD−ROIBL/GBL)/GBL where ROI mean region of interest, SD means under the condition of sleep deprivation, G means global and BL means under the condition of baseline performance.

COc1ccc(C(=O)N2CCCC2=O)cc1 [Aniracetam]
Mean open time of the AMPA receptor channel (AMPA receptor): increase the mean open time | Amplitude of the synaptic current (AMPA receptor; mirrored in the field EPSP): increases the amplitude | Duration of the synaptic current (AMPA receptor; mirrored in the field EPSP): prolongs its duration

O=C(c1ccc2nonc2c1)N1CCOCC1 [BCM, 1-(Benzofurazan-5-ylcarbonyl)morpholine]
Effect on the performance deficit in DMTS task caused by sleep deprivation ([1]; 0.8 mg/kg (iv), single night of sleep deprivation): completely reversed the performance deficit | Performance compared to baseline ([1]; Subject 1, 0.8 mg/kg (iv) after sleep deprivation): enhanced performance compared to baseline | Performance on DMTS Task (% Correct ± sem) ([1]; Subject No. 1, 0.8 mg/kg (iv), baseline 81 ± 2, sleep deprivation 65 ± 1): 87 ± 2 % Correct | Performance on DMTS Task (% Correct ± sem) ([1]; Subject No. 2, 0.8 mg/kg (iv), baseline 81 ± 2, sleep deprivation 67 ± 4): 83 ± 3 % Correct | Latencies to respond in the Match phase ([1]; drug administration after sleep deprivation, FIG. 1): not effected | Metabolism (absolute uptake of FDG) in all brain regions ([2]; BCM following sleep deprivation, compared to vehicle administration, FIG. 2): reduced compared to vehicle administration | Metabolism (uptake of FDG) in several brain regions relative to normal ([2]; BCM following sleep deprivation, FIG. 2): near normal levels | Energy demand of the brain to perform the DMTS task (FDG uptake normalized to global brain metabolism) ([2]; FIG. 3, normalized data): reduction in energy demand

O=C(c1ccc2nccnc2c1)N1CCCCC1 [CX516, 1-(Quinoxaline-6-ylcarbonyl)piperidine]
Improving performance in DMTS task ([1]; in vivo): effective at improving performance

From patent US20060276462A1, “Method of treating cognitive decline due to sleep deprivation and stress” (priority 2003, published 2006)
